Reference: patent US11241455B2, “Methods of treating disease by metabolic control of T-cell differentiation” (The J. David Gladstone Institutes, a testamentary trust …, priority 2016, dated 2022)

Legend:
[1] = tested on: FOXP3, Il17, Il17f, and Rorc mRNA in TH17 cells; assay: mRNA expression analysis by qRT-PCR in TH17 cells; format: cell-based, mouse; conditions: normalized to β-actin
Method: At the end of differentiation (day 6), T cells were re-stimulated with plate-coated anti-CD3 and anti-CD28 for 5 hours in the absence of any small-molecule compounds or metabolites. Quantitative reverse transcriptase polymerase chain reaction (qRT-PCR) was performed to evaluate mRNA expression of FOXP3, Il17, Il17f, and Rorc. For differentiating TH17 or iTreg cells, cells were collected on day 2.5 or at the indicated time for mRNA expression analysis. The expression was normalized to β-actin.

[2] = tested on: differentiating TH17 cells; assay: Intracellular metabolite profiling by LC/MS in differentiating TH17 cells; format: cell-based, mouse
Method: (§1) CD4 naïve T cells, differentiating TH17 cells (day 2.5), and differentiating iTreg cells (day 2.5) were obtained as described above. A solution of 80/20 methanol (MeOH)/H2O was used to extract intracellular metabolites. The extracted samples were analyzed with liquid chromatography (LC)/mass spectrometry (MS) metabolomics. 200 ng/mL of extraction standard (L-Glutamic acid-^13C5-^15N-d5) was added into samples, and the peak value for each metabolite was normalized to extraction standard. The data was transformed into Log 2 and clustered. Cell extracts obtained as described above were analyzed for relative abundance of ^13C and ^15N metabolites by liquid chromatography-triple quadrupole mass spectrometry (LC-MS) using scheduled selective reaction monitoring (SRM) for each metabolite of interest, with the detector set to negative mode. Quantitation of intracellular 2-hydroxyglutarate (2HG) was conducted as described previously (Kernesky et al., Blood 2015, 125(2) 296-303).

[3] = tested on: differentiating iTreg cells; assay: Intracellular metabolite profiling by LC/MS in differentiating iTreg cells; format: cell-based, mouse; conditions: day 2.5, 0.5 mM AOA
Method: as §1

[4] = tested on: differentiating iTreg cells; assay: U-13C glutamine flux analysis in differentiating iTreg cells; format: cell-based, mouse; conditions: 2 mM U-13C-glutamine for 4 hours
Method: CD4 naïve T cells, differentiating TH17 or iTreg cells (68 hours) were incubated with fresh media prior to labeling. The cells were then cultured for 4 hours at 37° C. with medium where the glutamine was replaced with the corresponding stable isotope label: 2 mM U-^13C glutamine or 2 mM ^15N-α-glutamine for 4 hours at 37° C. The cells were quickly collected and quickly washed with phosphate buffer saline (PBS), pelleted, and snap frozen in liquid nitrogen. The frozen samples were kept in −80° C. until extraction. Cell extracts were prepared by first adding 80/20 MeOH/H2O at −60° C. to the frozen pellets and collecting the supernatant after centrifugation at 4° C. The extracted samples were analyzed by high-resolution liquid-chromatography-mass spectrometry. Unlabeled glutamine-fed cells were used as background. For negative mode metabolomics: Cell extracts obtained as described above were analyzed for relative abundance of metabolites by liquid chromatography-triple quadrupole mass spectrometry (LC-MS) using scheduled selective reaction monitoring (SRM) for each metabolite of interest, with the detector set to negative mode. Prior to injection, dried extracts were reconstituted in LC-MS grade water. LC separation was achieved by reverse-phase ion-pairing chromatography.

[5] = tested on: FOXP3 promoter and its intronic CpG island; assay: Methylation analysis by bisulfite sequencing, T cells under TH17 condition; format: cell-based, mouse; conditions: 0.5 mM dimethyl R-2-HG (day 4) or AOA (day 6), male mice
Method: (§2) The method is essentially the same as described previously (Kim, et al. J Exp Med 204 (7), 1543-1551 (2007)). Briefly, genomic DNA was purified with Blood & Cell Culture DNA Midi Kit (Qiagen). Bisufite conversion of genomic DNA was performed using Epitect® bisulfite kit (Qiagen), according to the manufacture's instruction. The PCR product was run on 2% agarose, purified and cloned using TOPO® TA Cloning® Kit with PCR®4. Clones are picked for Sanger sequencing.

[6] = tested on: FOXP3 promoter and its intronic CpG island; assay: Methylation analysis by bisulfite sequencing, T cells under iTreg condition; format: cell-based, mouse; conditions: iTreg condition (day 5); 0.5 mM dimethyl R-2-HG or AOA; male mice
Method: as §2

[7] = tested on: EAE induced in C57BL/6 mice; assay: Mouse experimental autoimmune encephalitis (EAE) model; format: in vivo
Method: EAE was induced by immunizing mice (12 weeks old, 11-12 mice/group) twice with 300 μg of MOG35-55 peptide (amino acids 35-55; MEVGWYRSPFSROVHLYRNGK (SEQ ID NO: 2)) emulsified in complete Freund's adjuvant, followed by pertussis toxin injection and analyzed. The disease scores were assigned on a scale of 0-5 as follows: 0, none; 1, limp tail or waddling gait with tail tonicity; 2, wobbly gait; 3, hind limb paralysis; 4, hind limb and forelimb paralysis; 5, death. When the disease phenotype was very obvious (average score>1), PBS or (aminooxy)-acetic acid (AOA) (750 μg/mice) was intraperitoneal (i.p.) injected every day. After 8 days of administration of AOA or PBS, the mice were anesthetized, and cells infiltrated into brain and spinal cord were collected for analysis. When indicated, the statistical significance was determined by Student's t test (*, p<0.05; **, p<0.01; ***, p<0.001). All animal work was approved by the Institutional Animal Care and Use Committee (IACUC).
The in vitro findings that AOA regulates the TH17/iTreg balance prompted an investigation into the effects of AOA in vivo in the context of a pathologic TH17-dependent disease state. TH17 cells are the major pathogenic cell population in experimental autoimmune encephalomyelitis (EAE), a mouse model of multiple sclerosis, but FOXP3+regulatory T cells suppress TH17 cell-mediated inflammatory diseases, such as EAE. In the in vitro studies, AOA skewed TH17 differentiation towards FOXP3+ iTreg cells and, therefore, offers a potential to treat TH17-mediated autoimmune diseases. To test this possibility, EAE was induced in C57BL/6 mice by immunizing with myelin oligodendrocyte glycoprotein peptide (MOG35-55) in complete Freund's adjuvant (CFA) as described. AOA or control vehicle was injected daily intraperitoneally after a majority of the mice began to show obvious neurological signs, including tail paralysis that progressed to hind and front limb paralysis (disease score>1). […] The ratio of FOXP3+ cells to IL17+ cells is much higher in AOA-treated mice than in control mice (FIG. 4c).

[8] = differentiating TH17 cells, day 2.5, 0.5 mM AOA
[9] = brain and spinal cord infiltrated T cells after 8 days of AOA 750 μg/mice i.p. daily, p<0.01

NOCC(=O)O [AOA, (aminooxy)-acetic acid]
FOXP3 mRNA expression [1]: promoted transcription of FOXP3 | Il17/Il17f mRNA level ([1]; re-stimulated with anti-CD3 and anti-CD28 for 5 hours): selectively reduced the mRNA level of Il17/Il17f | abundance of TCA cycle intermediates (α-KG, succinate, fumarate, malate, citrate) [2, 8]: reduced partially | level of glutamate [2, 8]: slightly higher | reduction of steady-state levels of 2-HG [2, 8]: 75% | level of glutathione, oxidized glutathione, or L-asparate ([2]; re-plotted from FIG. 2a: differentiating TH17 or iTreg cells (day 2.5), absence or presence of AOA): does not affect | abundance of TCA cycle intermediates (α-KG, succinate, fumarate, malate, citrate) [3]: reduced partially | level of glutamate [3]: slightly higher | reduction of steady-state levels of 2-HG [3]: 50% | de novo synthesis of α-KG and 2-HG (U-13C labeled, normalized to U-13C-glutamine) [4]: inhibited | methylation level of FOXP3 promoter and its intronic CpG island [5]: dramatically decreased the methylation levels | methylation level of FOXP3 promoter and its intronic CpG island [6]: dramatically decreased the methylation levels | recovery from EAE diseases (disease scores, scale of 0-5) ([7]; 750 μg/mice i.p. every day, started when average score>1, versus PBS): significant recovery from EAE diseases | ratio of FOXP3+ cells to IL17+ cells ([7]; AOA-treated mice versus control mice, CNS infiltrated T cells): much higher | percentage of FOXP3+ T cells in the central nervous system [7, 9]: increased | percentage of TH17 cells in the central nervous system [7, 9]: significantly reduced
